Experimental data: ChEMBL document CHEMBL1201862, “PubChem BioAssay data set” (2004)
Activity calls are given as the source filed them.

Tests used:
[1] = target: T1, Corticotropin-releasing factor receptor 2/Corticotropin-releasing factor-binding protein (Homo sapiens, UniProt P24387+Q13324); test: activators of CRF receptor 2 with binding protein – uHTS hits, confirmation (AID 602473); assay type: functional; details: read-out: EC50_Mean
T1 sequence (Q13324 whole entry): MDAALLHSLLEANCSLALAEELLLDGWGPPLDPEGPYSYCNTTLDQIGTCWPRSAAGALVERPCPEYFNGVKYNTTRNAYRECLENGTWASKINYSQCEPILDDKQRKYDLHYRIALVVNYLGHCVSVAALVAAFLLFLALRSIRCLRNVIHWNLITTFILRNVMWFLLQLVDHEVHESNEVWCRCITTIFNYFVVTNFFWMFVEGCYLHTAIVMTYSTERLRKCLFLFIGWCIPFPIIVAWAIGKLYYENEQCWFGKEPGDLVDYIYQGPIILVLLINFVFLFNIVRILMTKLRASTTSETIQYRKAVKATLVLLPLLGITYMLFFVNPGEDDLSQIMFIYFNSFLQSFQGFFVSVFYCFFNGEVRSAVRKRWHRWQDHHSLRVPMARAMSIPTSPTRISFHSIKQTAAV
T1 sequence (P24387 whole entry): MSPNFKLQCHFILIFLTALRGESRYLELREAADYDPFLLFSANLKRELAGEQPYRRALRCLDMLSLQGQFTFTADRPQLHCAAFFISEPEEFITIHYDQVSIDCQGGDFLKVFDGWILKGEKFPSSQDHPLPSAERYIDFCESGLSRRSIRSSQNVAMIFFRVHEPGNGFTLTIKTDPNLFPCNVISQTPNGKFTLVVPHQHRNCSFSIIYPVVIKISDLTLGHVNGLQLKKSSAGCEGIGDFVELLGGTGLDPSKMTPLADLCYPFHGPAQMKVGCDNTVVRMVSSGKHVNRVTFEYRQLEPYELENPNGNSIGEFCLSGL

[2] = target: T1, Corticotropin-releasing factor receptor 2/Corticotropin-releasing factor-binding protein; test: Dose Response confirmation of uHTS hits for small molecule antagonists of the CRF-binding protein and CRF-R2 receptor complex.; assay type: functional; details: read-out: IC50_Mean
[3] = target: T2, Heat shock factor protein 1 (Mus musculus, UniProt P38532); test: HSF1 potentiators in luciferase reporter cells, confirmation, cell-based, NIH3T3, luminescence, dose retest (AID 435004); assay type: functional;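 also: stress induced by proteasome inhibitor MG132 added 30 min after compound; luciferase reporter driven by HSF1 response element in NIH3T3 cells; actives raise luminescence as potentiators of the MG132 stress response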
T2 sequence (P38532 whole entry): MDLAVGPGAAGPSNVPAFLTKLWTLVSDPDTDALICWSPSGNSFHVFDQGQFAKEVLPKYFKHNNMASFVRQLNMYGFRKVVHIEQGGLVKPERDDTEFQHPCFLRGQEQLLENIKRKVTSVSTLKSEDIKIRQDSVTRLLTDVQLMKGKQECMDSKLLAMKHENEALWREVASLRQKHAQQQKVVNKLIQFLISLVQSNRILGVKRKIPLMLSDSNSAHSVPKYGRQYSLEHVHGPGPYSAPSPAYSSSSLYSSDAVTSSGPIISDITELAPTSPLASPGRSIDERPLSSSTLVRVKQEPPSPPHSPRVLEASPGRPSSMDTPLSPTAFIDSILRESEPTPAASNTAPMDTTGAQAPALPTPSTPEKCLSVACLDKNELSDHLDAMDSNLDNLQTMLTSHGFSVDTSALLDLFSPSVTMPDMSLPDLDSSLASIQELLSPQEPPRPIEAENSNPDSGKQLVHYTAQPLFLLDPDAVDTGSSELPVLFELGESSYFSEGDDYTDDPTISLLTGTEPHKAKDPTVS

[4] = target: T3, Replicative DNA helicase DnaB (Mycobacterium tuberculosis, UniProt P9WMR3); test: DnaB intein splicing inhibitors, dose response, biochemical, cell-free fluorescence (AID 449749); assay type: functional
T3 sequence (P9WMR3 whole entry): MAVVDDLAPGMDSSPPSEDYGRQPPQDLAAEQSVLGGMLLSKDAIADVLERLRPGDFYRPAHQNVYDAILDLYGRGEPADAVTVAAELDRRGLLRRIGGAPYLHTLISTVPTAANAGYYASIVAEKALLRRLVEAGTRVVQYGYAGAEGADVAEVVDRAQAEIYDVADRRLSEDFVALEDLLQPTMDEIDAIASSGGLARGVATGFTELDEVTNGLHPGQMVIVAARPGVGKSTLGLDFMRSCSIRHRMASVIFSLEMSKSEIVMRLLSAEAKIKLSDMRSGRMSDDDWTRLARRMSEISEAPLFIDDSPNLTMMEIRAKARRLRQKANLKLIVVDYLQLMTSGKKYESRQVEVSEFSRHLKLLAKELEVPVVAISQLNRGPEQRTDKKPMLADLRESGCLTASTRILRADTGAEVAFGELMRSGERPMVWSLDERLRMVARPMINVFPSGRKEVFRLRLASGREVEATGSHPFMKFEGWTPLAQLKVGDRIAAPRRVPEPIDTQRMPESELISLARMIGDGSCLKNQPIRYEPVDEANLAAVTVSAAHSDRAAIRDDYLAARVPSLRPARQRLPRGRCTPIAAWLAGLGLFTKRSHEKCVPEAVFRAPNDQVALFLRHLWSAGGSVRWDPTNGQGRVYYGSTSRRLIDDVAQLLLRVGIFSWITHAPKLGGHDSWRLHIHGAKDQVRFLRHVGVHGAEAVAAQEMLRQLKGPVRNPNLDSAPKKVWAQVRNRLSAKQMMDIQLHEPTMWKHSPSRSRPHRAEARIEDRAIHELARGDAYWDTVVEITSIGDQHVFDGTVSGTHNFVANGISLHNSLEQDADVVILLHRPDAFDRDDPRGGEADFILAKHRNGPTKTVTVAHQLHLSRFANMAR

Protein RecA = target: T4, Protein RecA (Mycobacterium tuberculosis, UniProt P9WHJ3); test: Fluorescence Cell-Free Homogeneous Dose Retest to Identify Inhibitors of RecA-Intein Splicing Activity. [Related pubchem assays (depositor defined):AID2097, AID2223, AID489010, AID492950]; assay type: functional
T4 sequence (P9WHJ3 whole entry): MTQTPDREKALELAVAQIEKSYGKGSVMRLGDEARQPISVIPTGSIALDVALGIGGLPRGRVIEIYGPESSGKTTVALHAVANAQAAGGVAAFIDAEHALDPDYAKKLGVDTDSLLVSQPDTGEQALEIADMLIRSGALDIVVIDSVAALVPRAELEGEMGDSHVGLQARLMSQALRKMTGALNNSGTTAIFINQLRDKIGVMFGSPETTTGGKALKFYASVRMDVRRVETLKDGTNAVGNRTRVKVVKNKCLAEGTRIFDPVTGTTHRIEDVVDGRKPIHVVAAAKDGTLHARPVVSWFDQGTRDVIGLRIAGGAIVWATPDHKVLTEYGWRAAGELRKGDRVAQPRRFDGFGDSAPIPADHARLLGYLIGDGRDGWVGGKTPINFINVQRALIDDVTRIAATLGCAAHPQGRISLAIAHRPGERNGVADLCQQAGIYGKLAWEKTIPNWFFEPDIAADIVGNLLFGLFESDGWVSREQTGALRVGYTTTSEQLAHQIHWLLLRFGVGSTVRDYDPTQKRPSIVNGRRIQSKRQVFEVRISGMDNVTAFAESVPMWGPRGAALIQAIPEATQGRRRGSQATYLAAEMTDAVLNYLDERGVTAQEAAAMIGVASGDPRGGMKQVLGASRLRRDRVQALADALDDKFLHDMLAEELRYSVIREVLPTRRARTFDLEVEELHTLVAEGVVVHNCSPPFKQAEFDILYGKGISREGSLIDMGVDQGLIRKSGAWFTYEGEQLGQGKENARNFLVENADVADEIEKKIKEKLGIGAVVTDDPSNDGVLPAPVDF

[5] = target: Induced myeloid leukemia cell differentiation protein Mcl-1 (Homo sapiens, UniProt Q07820); assay type: functional
[6] = microbe, parasite or virus in culture; assay type: functional; details: Mycobacterium tuberculosis
[7] = C. albicans growth with fluconazole, confirmation, fluorescence, retest (AID 2467); assay type: functional, cell-based
[8] = NIH-3T3 fibroblast cytotoxicity, dose response, cytotoxicity control, cell-based, fluorescence, Alamar Blue, secondary assay (AID 2327); assay type: functional;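 also: NIH-3T3 mouse fibroblasts cultured with fluconazole at 8 µg/mL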
Paired box protein Pax-8 = Paired box protein Pax-8 (Homo sapiens, UniProt Q06710); test: inhibitors of PAX8-driven TPO luciferase reporter, dose response, RMG-I cells, cherry-pick (AID 687027); assay type: functional, cell-based;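 also: luciferase reporter driven by Pax8 target thyroperoxidase promoter measured by SteadyGlo luminescence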
[9] = P. falciparum Dd2 growth inhibitors, dose response, SYBR Green, cherry-picked samples (AID 1159567); assay type: functional, cell-based

Sequence of Induced myeloid leukemia cell differentiation protein Mcl-1 (Q07820 whole entry): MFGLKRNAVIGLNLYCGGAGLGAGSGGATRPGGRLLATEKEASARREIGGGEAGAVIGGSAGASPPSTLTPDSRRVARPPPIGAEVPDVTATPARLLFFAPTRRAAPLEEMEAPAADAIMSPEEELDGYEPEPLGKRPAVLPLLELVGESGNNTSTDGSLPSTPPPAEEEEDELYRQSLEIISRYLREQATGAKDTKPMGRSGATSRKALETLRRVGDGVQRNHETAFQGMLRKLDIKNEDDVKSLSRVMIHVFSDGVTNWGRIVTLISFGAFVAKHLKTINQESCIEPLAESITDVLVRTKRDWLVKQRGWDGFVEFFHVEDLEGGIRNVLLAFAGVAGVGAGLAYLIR
Sequence of Paired box protein Pax-8 (Q06710 whole entry): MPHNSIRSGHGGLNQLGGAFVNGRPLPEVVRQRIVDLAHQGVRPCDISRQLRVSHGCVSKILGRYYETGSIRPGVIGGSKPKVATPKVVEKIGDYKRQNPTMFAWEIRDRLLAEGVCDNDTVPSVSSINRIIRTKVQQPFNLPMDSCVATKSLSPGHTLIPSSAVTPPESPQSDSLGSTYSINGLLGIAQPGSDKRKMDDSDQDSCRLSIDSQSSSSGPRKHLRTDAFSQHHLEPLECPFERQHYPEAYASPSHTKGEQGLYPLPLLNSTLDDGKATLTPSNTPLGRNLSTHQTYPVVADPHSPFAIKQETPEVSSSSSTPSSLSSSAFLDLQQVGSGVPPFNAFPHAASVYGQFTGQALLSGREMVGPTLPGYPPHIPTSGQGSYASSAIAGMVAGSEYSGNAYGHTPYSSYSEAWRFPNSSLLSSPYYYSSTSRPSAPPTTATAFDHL

C=C(C)C(=O)Oc1ccc(N2C(=O)[C@@H]3C4C=CC(C4)[C@@H]3C2=O)cc1
EC50 [1]: > 53 µM (inactive)
IC50 [2]: > 47.1 µM (inactive)

COc1ccc(N2C(=O)C(Cl)=C(Oc3cccc(OC)c3)C2=O)cc1
EC50 [3]: 1.84 µM (active)
AC50 [4]: 18.9 µM (active)
EC50 (Protein RecA): 10.7 µM (active)

CCN(c1ccc(NC(=O)COC(=O)c2cc3ccccc3oc2=O)cc1)C(C)C
IC50 [5]: 25.3 µM (not active)

O=C(CCC(=O)OCC(F)(F)C(F)F)NCc1ccccc1
EC50 [1]: > 53 µM (inactive)
IC50 [2]: > 47.1 µM (inactive)

CC1=C(C(=O)OC(C)C)C(c2cccs2)N2C(=O)C(C)SC2=N1 (stereo not drawn)
EC50 [1]: > 53 µM (inactive)
IC50 [2]: > 47.1 µM (inactive)

COc1ccc(C(CC(=O)c2ccc(C)cc2)C(C#N)C#N)cc1OC (stereo not drawn)
EC50 [3]: 5.54 µM (active)
AC50 [4]: 11.4 µM (active)
EC50 (Protein RecA): 4.79 µM (active)

Cc1nn(Cc2ccccc2)c(C)c1NC(=O)c1cc2nc(-c3ccco3)cc(C(F)(F)F)n2n1
CC50 [6]: > 40 µM (active)

CC(C)c1cc(N2CCC(=O)NC2=O)cc(C(=O)O)c1O
EC50 [1]: > 53 µM (inactive)
IC50 [2]: > 47.1 µM (inactive)

COc1ccc(N(CC(=O)Nc2cc(Cl)ccc2C)S(=O)(=O)c2c(C)n[nH]c2C)cc1
CC50 [6]: > 40 µM (active)

C/C(Cl)=C\COc1cc(C)nc2c(Br)cccc12
CC50 [6]: > 40 µM (active)

CC1CCCCN1C(C(=O)O)c1ccccc1 (stereo not drawn)
EC50 [1]: > 53 µM (inactive)
IC50 [2]: > 47.1 µM (inactive)

CCOc1ccc(N2CC(C(=O)NCc3nnnn3-c3ccc(C)c(C)c3)CC2=O)cc1 (stereo not drawn)
EC50 [1]: > 53 µM (inactive)
IC50 [2]: > 47.1 µM (inactive)

CCC(C)NS(=O)(=O)c1ccc(OCC(=O)NCc2ccccn2)cc1 (stereo not drawn)
EC50 [1]: > 53 µM (inactive)
IC50 [2]: > 47.1 µM (inactive)

CC1CCN(c2ccc(NC(=O)Cc3ccccc3)cc2)CC1
IC50 [5]: 5.35 µM (not active)

Cc1cc(NC2CCCCC2)nc(-c2ccccc2O)n1
CC50 [6]: > 40 µM (active)

Nc1ccc2c(c1Cl)C(=O)c1ccc(N)c(Cl)c1C2=O
IC50 [5]: 2.76 µM (active)

O=C(CSc1nnc(-c2ccco2)n1Cc1ccccc1)OC1CCCCC1
EC50 [3]: 35.8 µM (active)
EC50 [7]: > 38 µM (not active)
EC50 [8]: > 150 µM (inactive)

COC(=O)C(CC(=O)c1cccc(OC)c1)c1ccc(F)cc1 (stereo not drawn)
EC50 [1]: > 53 µM (inactive)
IC50 [2]: > 47.1 µM (inactive)

Cc1ccc(NS(=O)(=O)c2ccc(C(=O)Nc3nncs3)cc2)cc1
EC50 [1]: > 53 µM (inactive)
IC50 [2]: > 47.1 µM (inactive)

COc1ccccc1CNC(=O)CCc1nnc2ccc(NCCCN3CCCC3=O)nn12
EC50 [1]: > 53 µM (inactive)
IC50 [2]: > 47.1 µM (inactive)

C[C@@H]1CN([C@H](C)CO)C(=O)Cc2cc(NC(=O)Cc3ccccc3)ccc2O[C@@H]1CN(C)Cc1ccc(C(F)(F)F)cc1
AC50 (Paired box protein Pax-8): 11.8 µM (active)

C[C@@H]1CCCCO[C@@H](CN(C)Cc2ccc(C(F)(F)F)cc2)[C@H](C)CN([C@H](C)CO)C(=O)c2cc(NS(=O)(=O)c3cccs3)ccc2O1
AC50 (Paired box protein Pax-8): 9.08 µM (active)

CC(=O)O[C@H]1C[C@H](O[C@H]2[C@@H](O)C[C@H](O[C@H]3[C@@H](O)C[C@H](O[C@H]4CC[C@@]5(C)[C@H](CC[C@@H]6[C@@H]5CC[C@]5(C)[C@@H](C7=CC(=O)OC7)CC[C@]65O)C4)O[C@@H]3C)O[C@@H]2C)O[C@H](C)[C@H]1O[C@@H]1O[C@H](CO)[C@@H](O)[C@H](O)[C@H]1O
AC50 (Paired box protein Pax-8): 0.345 µM (active)

O=C(Cc1ccccn1)N1CCCCN2[C@@H](CO)[C@@H](c3ccc(C#Cc4ccccc4)cc3)[C@@H]2C1
AC50 [9]: 4.71 µM (active)

COc1ccc2c3c(n(C)c2c1)[C@@H](CO)N(C(=O)c1ccc(F)cc1)CC31CN(CC2CCOCC2)C1
AC50 [9]: 12.1 µM (active)

CO[C@@H]1CN(C)C(=O)c2cc(NC(=O)Cc3ccccc3)ccc2OC[C@H](C)N(C(=O)c2ccccc2F)C[C@@H]1C
AC50 [9]: 7.66 µM (active)

COc1ccc(C#Cc2ccc3c(c2)[C@H]2[C@H](CCN2C(=O)c2ccccn2)[C@@H](CO)N3)cc1
AC50 [9]: 3.75 µM (active)
